Assay [1] addresses T1, Alpha-1A adrenergic receptor (Homo sapiens, UniProt P35348).
T1 sequence (P35348 whole entry): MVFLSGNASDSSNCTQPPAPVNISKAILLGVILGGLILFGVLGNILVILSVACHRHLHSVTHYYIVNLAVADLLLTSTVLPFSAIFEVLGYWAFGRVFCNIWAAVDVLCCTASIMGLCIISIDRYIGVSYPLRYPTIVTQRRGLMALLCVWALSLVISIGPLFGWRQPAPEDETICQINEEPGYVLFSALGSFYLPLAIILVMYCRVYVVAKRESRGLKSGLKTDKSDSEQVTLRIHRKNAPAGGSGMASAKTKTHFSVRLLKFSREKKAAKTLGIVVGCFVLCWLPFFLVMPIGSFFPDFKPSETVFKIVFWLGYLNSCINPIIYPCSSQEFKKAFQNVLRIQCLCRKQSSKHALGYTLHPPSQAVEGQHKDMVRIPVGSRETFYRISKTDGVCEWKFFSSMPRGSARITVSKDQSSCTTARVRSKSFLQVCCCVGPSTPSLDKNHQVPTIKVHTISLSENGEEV
Description: Antagonist activity at human full-length N-terminal SNAP-tagged alpha1A adrenoceptor expressed in HEK293 cells assessed as inhibition of agonist-induced calcium mobilization preincubated for 10 mins followed by agonist addition by fluo-4 AM dye-based assay

For assay [2], the target named is T2, Alpha-1A adrenergic receptor (Homo sapiens) (UniProt P35348).
T2 sequence (whole entry): T1 sequence (P35348 whole entry)
The assay is described as follows: Antagonist activity at human full-length N-terminal SNAP-tagged alpha1A adrenoceptor expressed in HEK293 cells assessed as inhibition of agonist-induced calcium mobilization at 10 uM preincubated for 10 mins followed by agonist addition by fluo-4 AM dye-based assay relative to control. The assay is classed as functional, cell-based.

Assay [3] deals with T3, Alpha-1B adrenergic receptor (Homo sapiens, UniProt P35368).
T3 sequence (P35368 whole entry): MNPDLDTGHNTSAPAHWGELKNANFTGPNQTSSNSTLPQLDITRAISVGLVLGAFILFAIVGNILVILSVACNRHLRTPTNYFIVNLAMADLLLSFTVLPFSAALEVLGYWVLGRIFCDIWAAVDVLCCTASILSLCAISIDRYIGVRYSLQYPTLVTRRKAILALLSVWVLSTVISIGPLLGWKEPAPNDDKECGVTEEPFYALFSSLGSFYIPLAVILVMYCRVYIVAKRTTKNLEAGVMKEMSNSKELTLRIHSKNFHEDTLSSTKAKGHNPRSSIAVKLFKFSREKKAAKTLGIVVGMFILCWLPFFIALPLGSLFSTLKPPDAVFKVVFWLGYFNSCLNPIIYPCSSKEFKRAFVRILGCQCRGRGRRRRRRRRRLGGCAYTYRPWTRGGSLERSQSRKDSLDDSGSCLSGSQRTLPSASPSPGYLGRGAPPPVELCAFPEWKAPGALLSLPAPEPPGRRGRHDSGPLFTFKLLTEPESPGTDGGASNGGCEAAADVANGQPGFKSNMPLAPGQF
Description: Antagonist activity at human full-length N-terminal SNAP-tagged alpha1B adrenoceptor expressed in HEK293 cells assessed as inhibition of agonist-induced calcium mobilization preincubated for 10 mins followed by agonist addition by fluo-4 AM dye-based assay

The target of assay [4] is T4, Alpha-1D adrenergic receptor (Homo sapiens, UniProt P25100).
T4 sequence (P25100 whole entry): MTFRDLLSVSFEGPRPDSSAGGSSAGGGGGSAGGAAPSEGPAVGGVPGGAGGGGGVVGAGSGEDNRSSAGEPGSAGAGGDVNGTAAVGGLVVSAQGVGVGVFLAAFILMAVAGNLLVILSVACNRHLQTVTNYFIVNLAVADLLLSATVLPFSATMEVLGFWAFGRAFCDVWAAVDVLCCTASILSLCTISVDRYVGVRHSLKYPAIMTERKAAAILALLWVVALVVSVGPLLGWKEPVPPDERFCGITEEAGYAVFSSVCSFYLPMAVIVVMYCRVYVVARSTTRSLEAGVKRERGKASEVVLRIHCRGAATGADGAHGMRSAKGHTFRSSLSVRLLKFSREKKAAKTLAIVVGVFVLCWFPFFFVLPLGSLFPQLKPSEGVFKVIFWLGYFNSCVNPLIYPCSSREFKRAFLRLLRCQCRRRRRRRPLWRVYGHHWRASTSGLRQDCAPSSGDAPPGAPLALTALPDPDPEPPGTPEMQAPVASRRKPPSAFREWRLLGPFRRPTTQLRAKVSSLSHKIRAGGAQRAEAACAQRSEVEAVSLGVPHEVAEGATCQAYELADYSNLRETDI
Description: Antagonist activity at human full-length N-terminal SNAP-tagged alpha1D adrenoceptor expressed in HEK293 cells assessed as inhibition of agonist-induced calcium mobilization preincubated for 10 mins followed by agonist addition by fluo-4 AM dye-based assay

For assay [5], the species on record is Homo sapiens. The assay is described as follows: Selectivity ratio of IC50 for human full-length N-terminal SNAP-tagged alpha1D adrenoceptor to IC50 for human full-length N-terminal SNAP-tagged alpha1A adrenoceptor.
The species entered for assay [6] is Homo sapiens. The assay is described as follows: Selectivity ratio of IC50 for human full-length N-terminal SNAP-tagged alpha1B adrenoceptor to IC50 for human full-length N-terminal SNAP-tagged alpha1A adrenoceptor.
Assay [7] concerns the target T5, Alpha-1A adrenergic receptor (Rattus norvegicus, UniProt P43140).
T5 sequence (P43140 whole entry): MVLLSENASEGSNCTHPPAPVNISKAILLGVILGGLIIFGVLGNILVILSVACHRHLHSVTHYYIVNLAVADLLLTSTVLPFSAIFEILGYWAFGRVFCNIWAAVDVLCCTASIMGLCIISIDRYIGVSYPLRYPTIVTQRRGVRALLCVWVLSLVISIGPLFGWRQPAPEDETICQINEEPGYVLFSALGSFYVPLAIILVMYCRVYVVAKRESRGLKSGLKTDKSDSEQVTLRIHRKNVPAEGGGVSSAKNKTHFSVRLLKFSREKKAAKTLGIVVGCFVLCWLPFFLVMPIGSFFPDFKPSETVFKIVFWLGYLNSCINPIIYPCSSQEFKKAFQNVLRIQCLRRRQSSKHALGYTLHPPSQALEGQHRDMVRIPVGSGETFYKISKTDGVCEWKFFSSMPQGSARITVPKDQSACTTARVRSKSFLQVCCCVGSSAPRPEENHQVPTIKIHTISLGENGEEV
The assay is described as follows: Displacement of [125I]-BE2254 from Wistar rat alpha1A adrenoceptor after 20 mins. (Loss of bound radioactivity is the signal in a displacement assay; it reports binding, not function.)

37 compounds from ChEMBL document CHEMBL3856276, “Design, Synthesis, and Biological Evaluation of Novel Tetrahydroprotoberberine Derivatives (THPBs) as Selective α1A-Adrenoceptor Antagonists” (J Med Chem, 2016) can be followed below.

What is called IC50 is the point on the concentration scale where inhibition reaches its midpoint. `COc1ccc2c(c1OC)CN1CCc3cc4c(cc3[C@@H]1C2)OCO4` [CANADINE]: in assay [1], the IC50 is 5400 nM.

Broadly, the inhibition is the drop in the measured response relative to a control, in per cent. Regarding `COc1ccc2[nH]c3c(c2c1)C[C@@H]1c2cc4c(cc2CCN1C3)OCO4`, in assay [1], half-maximal inhibition (IC50) required 3190 nM. For the same compound, the inhibition in assay [2] was found to be 100%.

Turning to `COc1cc2c(cc1OC)C1Cc3c([nH]c4ccccc34)CN1CC2` (configuration not stated), in assay [2], the inhibition amounted to 60%.

Take `COc1ccc2[nH]c3c(c2c1)CC1c2cc(OC)c(O)cc2CCN1C3` (configuration not stated): in assay [2], the inhibition was 0%.

As for `CCCOc1cc2c(cc1OC)CCN1Cc3[nH]c4ccc(OC)cc4c3CC21` (configuration not stated), the results for the IC50 in assay [3], in assay [4] and in assay [1] were more than 10000 nM, more than 10000 nM and 225 nM, respectively. Besides, the Ratio IC50 in assay [5] and in assay [6] was more than 44.4 each time. For the same compound, in assay [2], the inhibition came to 100%.

Compound `COc1ccc(C2c3[nH]c4ccccc4c3CC3c4ccc(OC)cc4CCN32)cc1` (configuration not stated) yielded an IC50 in assay [1] of more than 10000 nM. For the same compound, the inhibition in assay [2] was found to be 80%.

In the case of `CCOc1cc2c(cc1OC)C1Cc3c([nH]c4ccc(OC)cc34)CN1CC2` (configuration not stated), the inhibition in assay [2] is 17%.

Regarding `COc1cc2c(cc1OC)C1Cc3c([nH]c4ccccc34)C(c3ccccc3)N1CC2` (configuration not stated), in assay [2], the inhibition worked out at 0%.

Take `COc1cc2c(cc1OC)C1Cc3c([nH]c4ccccc34)C(CC(C)C)N1CC2` (configuration not stated): the inhibition in assay [2] was 72%.

Take `COc1ccc2[nH]c3c(c2c1)CC1c2cc(O)c(OC)cc2CCN1C3` (configuration not stated): in assay [2], the inhibition is 56%.

For `CCOc1ccccc1OCCN[C@H](C)Cc1ccc(OC)c(S(N)(=O)=O)c1` [TAMSULOSIN], the IC50 in assay [3] was 4.8 nM; in assay [4] it was 1.4 nM. Besides, the inhibition in assay [2] stood at 100%.

In the case of `COc1ccc(C2c3[nH]c4ccccc4c3CC3c4cc5c(cc4CCN32)OCO5)cc1` (configuration not stated), the inhibition in assay [2] is 0%.

Consider `COc1ccc2c(c1)CCN1Cc3[nH]c4ccccc4c3CC21` (configuration not stated), for which the IC50 in assay [1] was 552 nM. Further, the inhibition in assay [2] worked out at 100%.

On to `COc1cc2c(cc1OC)[C@@H]1Cc3ccc(OC)c(OC)c3CN1CC2`, for which the inhibition in assay [2] came out at 41.2%.

With `CCC1c2[nH]c3ccccc3c2CC2c3cc4c(cc3CCN21)OCO4` (configuration not stated), the IC50 in assay [1] is more than 10000 nM. Moreover, the inhibition in assay [2] was determined as 82%.

A word on the Ki: it is a dissociation constant, usually derived from enzyme kinetics or from competition with a known ligand. Read a low Ki as tighter binding. The compound `COc1cc2c(cc1O)[C@@H]1Cc3c(Cl)cc(OC)c(O)c3CN1CC2` showed a Ki in assay [7] of 1380 nM.

As to `COc1ccc2c3c([nH]c2c1)CN1CCc2cc4c(cc2C1C3)OCO4` (configuration not stated), the results for the IC50 in assay [3], in assay [4] and in assay [1] were more than 10000 nM, more than 10000 nM and 594 nM, respectively. For the same compound, the Ratio IC50 in assay [5] and in assay [6] was more than 16.8 each time. In addition, the inhibition in assay [2] turned out to be 100%.

Consider `COc1ccc2c(c1)CCN1C2Cc2c([nH]c3ccccc23)C1C1CC1` (configuration not stated), for which, in assay [2], the inhibition came out at 31%.

As for `COc1cc2c(cc1OC)C1Cc3c([nH]c4ccccc34)C(c3ccc(F)cc3)N1CC2` (configuration not stated), the inhibition in assay [2] is 0%.

On to `CCCOc1cc2c(cc1OC)C1Cc3c([nH]c4ccc(OC)cc34)CN1CC2` (configuration not stated), for which the inhibition in assay [2] is 21%.

Turning to `c1ccc2c3c([nH]c2c1)CN1CCc2cc4c(cc2[C@@H]1C3)OCO4`, the half-inhibitory concentration (IC50) in assay [3] was more than 10000 nM; in assay [4] it was more than 10000 nM; in assay [1] it was 57.4 nM. In addition, the Ratio IC50 in assay [5] and in assay [6] was more than 174 throughout. In addition, in assay [2], the inhibition is 99%.

In assay [1], `COc1ccc2c(c1)CCN1C(C)c3[nH]c4ccccc4c3CC21` (configuration not stated) registered an IC50 of 8670 nM. Further, the inhibition in assay [2] amounted to 90%.

In assay [1], `c1c2c(cc3c1OCO3)CN1CCc3cc4c(cc3C1C2)OCO4` (configuration not stated) registered an IC50 of 462 nM.

Take `COc1cccc2[nH]c3c(c12)CC1c2cc4c(cc2CCN1C3)OCO4` (configuration not stated): the IC50 was more than 10000 nM in assay [3], more than 10000 nM in assay [4] and 202 nM in assay [1]. Moreover, the Ratio IC50 in assay [5] and in assay [6] was more than 19.4 throughout. The inhibition in assay [2] came to 100%.

Regarding `COc1cc2c(cc1O)[C@@H]1Cc3ccc(O)c(OC)c3CN1CC2` [STEPHOLIDINE], the affinity in assay [7], expressed as Ki, was 2240 nM.

In the case of `CC(C)CC1c2[nH]c3ccccc3c2CC2c3cc4c(cc3CCN21)OCO4` (configuration not stated), the inhibition in assay [2] came out at 0%.

On to `c1ccc(COc2ccc3[nH]c4c(c3c2)CC2c3cc5c(cc3CCN2C4)OCO5)cc1` (configuration not stated), for which the IC50 in assay [1] came to 2880 nM. Also, in assay [2], the inhibition was found to be 100%.

On to `CCOc1cc2c(cc1OC)CCN1Cc3[nH]c4ccc(OC)cc4c3CC21` (configuration not stated), for which the inhibition in assay [2] worked out at 75%.

`Fc1ccc2c3c([nH]c2c1)CN1CCc2cc4c(cc2C1C3)OCO4` (configuration not stated) had an IC50 in assay [1] of 2060 nM. The inhibition in assay [2] came to 100%.

`CCCCOc1cc2c(cc1OC)CCN1Cc3[nH]c4ccc(OC)cc4c3CC21` (configuration not stated) came in with a half-maximal inhibitory concentration (IC50) in assay [1] of 2290 nM. Also, the inhibition in assay [2] was 98%.

As for `COc1ccc(C2c3[nH]c4ccccc4c3CC3c4cc(OC)c(OC)cc4CCN32)cc1` (configuration not stated), in assay [2], the inhibition is 21%.

`COc1ccc2c(c1OC)CN1CCc3cc4c(cc3C1C2)OCO4` (configuration not stated) [TETRAHYDROBERBERINE] showed a Ki in assay [7] of 1120 nM.

For `Fc1ccc(C2c3[nH]c4ccccc4c3CC3c4cc5c(cc4CCN32)OCO5)cc1` (configuration not stated), the inhibition in assay [2] came to 0%.

On to `c1ccc2c3c([nH]c2c1)CN1CCc2cc4c(cc2C1C3)OCO4` (configuration not stated), for which the IC50 in assay [3] was more than 10000 nM; in assay [4], more than 10000 nM; in assay [1] it was 125 nM. In addition, the Ratio IC50 in assay [5] and in assay [6] was more than 80 each time. Further, the inhibition in assay [2] amounted to 100%.

For `Fc1ccc2[nH]c3c(c2c1)CC1c2cc4c(cc2CCN1C3)OCO4` (configuration not stated), the IC50 in assay [3] was more than 10000 nM; in assay [4], 8390 nM; in assay [1], 254 nM. Moreover, the figures for the Ratio IC50 in assay [5] and in assay [6] were 33.1 and more than 39.4, respectively. The inhibition in assay [2] was found to be 100%.

On to `CCCCOc1cc2c(cc1OC)C1Cc3c([nH]c4ccc(OC)cc34)CN1CC2` (configuration not stated), for which, in assay [2], the inhibition is 63%.

For `COc1cc2cc[n+]3c(c2cc1OC)Cc1ccc(OC)c(OC)c1C3`, in assay [1], the half-maximal inhibitory concentration (IC50) came to 7600 nM. In other words, the single-digit micromolar range.
